From patent publication US8012987B2, “Indolo[2,1-b] quinazole-6,12-dione antimalarial compounds and methods of treating malaria therewith” (The United States of America as represented by the …, priority 1998, dated 2011)
≈ marks a conversion by molar mass, not a printed value.

What was measured:
[1] = system: Plasmodium falciparum clone CDC Indochina III (W-2); test: In vitro inhibition of [3H]hypoxanthine uptake, P. falciparum W-2 clone; type: cell-based; details: Plasmodium falciparum, values in parentheses: culture medium with 10% Albumax I; read-out: IC50 (W-2)
Protocol: (§1) The in vitro assays were conducted by using a modification of the semiautomated microdilution technique of Desjardins et al.^11 and Chulay et al.^12 Two strains of Plasmodium falciparum clones, from CDC Indochina III (W-2), CDC Sierra Leone I (D-6). […] These solutions were subsequently serially diluted 2-fold with a Biomek 1000® (Beckman, Fullerton, Calif.) over 11 different concentrations. The parasites were exposed to serial dilutions of each compound for 48 h and incubated at 37° C. with 5% O2, 5% CO2, and 90% N2 prior to the addition of [^3H]hypoxanthine. […] Uptake of [^3H]hypoxanthine was measured with a Packard Topcount scintillation counter. […] The values without parentheses indicate culture in blood serum which more closely resemble conditions in a living animal.
(§2) The numbers associated with both W2 and D6 refer to IC50 values and the units are ng/ml.

[2] = system: Plasmodium falciparum clone CDC Sierra Leone I (D-6); test: In vitro inhibition of [3H]hypoxanthine uptake, P. falciparum D-6 clone; type: cell-based; details: Plasmodium falciparum, values in parentheses: culture medium with 10% Albumax I; read-out: IC50 (D-6)
Protocol: as §1, §2

SMILES | IC50 [1] | IC50 [2]
CC(C)(C)OC(=O)N1CCN(c2cc3nc4n(c(=O)c3cc2F)-c2ccc(I)cc2C4=O)CC1 [Example 31] | 0.134 µg/mL (≈ 0.233 µM) | 0.161 µg/mL (≈ 0.279 µM)
COCCOC(c1ccc2c(c1)C(=O)c1nc3ccncc3c(=O)n1-2)C(C)C (stereo not drawn) [Example 85] | 0.105 µg/mL (≈ 0.278 µM) | 0.136 µg/mL (≈ 0.358 µM)
O=C(N/N=C1\c2ccccc2-n2c1nc1ccccc1c2=O)c1ccncc1 [Example 43] | 23 µg/mL (≈ 62.6 µM) | 38.2 µg/mL (≈ 104 µM)
CCCCCCC(C)c1ccc2c(c1)C(=O)c1nc3ccncc3c(=O)n1-2 (stereo not drawn) [Example 71] | 0.12 µg/mL (≈ 0.332 µM) | 0.143 µg/mL (≈ 0.397 µM)
CN1CCN(c2ccc3c(=O)n4c(nc3c2)C(=O)c2cc(F)ccc2-4)CC1 [Example 15] | 0.082 µg/mL (≈ 0.225 µM) | 0.126 µg/mL (≈ 0.345 µM)
CC1CN(c2cc3nc4n(c(=O)c3cc2F)-c2ccc(I)cc2C4=O)CCN1C(=O)OC(C)(C)C (stereo not drawn) [Example 34] | 0.601 µg/mL (≈ 1.02 µM) | 0.588 µg/mL (≈ 0.996 µM)
CN(CCO)c1ccc2c(=O)n3c(nc2c1)C(=O)c1cc(OC(F)(F)F)ccc1-3 [Example 79] | 0.0688 µg/mL (≈ 0.17 µM) | 0.07 µg/mL (≈ 0.173 µM)
Cc1ncc2c(=O)n3c(nc2n1)C(=O)c1ccccc1-3 [Example 56] | 0.117 µg/mL (≈ 0.443 µM) | 0.216 µg/mL (≈ 0.817 µM)
CCN(CCN(C)C)c1ccc2c(=O)n3c(nc2c1)C(=O)c1cc(Cl)ccc1-3 [Example 49] | 0.0747 µg/mL (≈ 0.188 µM) | 0.0739 µg/mL (≈ 0.186 µM)
Cc1cccc2c(=O)n3c(nc12)C(=O)c1cc(F)ccc1-3 [Example 14] | 0.00576 µg/mL (≈ 0.0206 µM) | 0.0102 µg/mL (≈ 0.0363 µM)
Cc1cccc2c(=O)n3c(nc12)C(=O)c1ccccc1-3 [Example 6] | 0.503 µg/mL (≈ 1.92 µM) | 0.527 µg/mL (≈ 2.01 µM)
O=C1c2cc(C3OCCCO3)ccc2-n2c1nc1ccncc1c2=O [Example 77] | 0.165 µg/mL (≈ 0.493 µM) | 0.22 µg/mL (≈ 0.657 µM)
O=C1c2ccccc2-n2c1nc1ccc(Br)cc1c2=O [Example 7] | 0.513 µg/mL (≈ 1.57 µM) | 0.577 µg/mL (≈ 1.76 µM)
CN(CCOC(=O)CCC(=O)O)c1ccc2c(=O)n3c(nc2c1)C(=O)c1cc(Cl)ccc1-3 [Example 61] | 0.187 µg/mL (≈ 0.41 µM) | 0.247 µg/mL (≈ 0.542 µM)
O=C1c2ccccc2-n2c1nc1c(Br)cc(Br)c(F)c1c2=O [Example 33] | 0.0796 µg/mL (≈ 0.188 µM) | 0.0671 µg/mL (≈ 0.158 µM)
CN1CCN(/N=C\c2ccc3c(c2)C(=O)c2nc4ccncc4c(=O)n2-3)CC1 [Example 66] | 0.449 µg/mL (≈ 1.2 µM) | 0.517 µg/mL (≈ 1.38 µM)
Cc1cc(C)c2nc3n(c(=O)c2c1)-c1ccc(F)cc1C3=O [Example 10] | 0.131 µg/mL (≈ 0.445 µM) | 0.138 µg/mL (≈ 0.469 µM)
O=C1c2cc(/C=N/N3CCCCC3)ccc2-n2c1nc1ccncc1c2=O [Example 89] | 0.0688 µg/mL (≈ 0.191 µM) | 0.112 µg/mL (≈ 0.311 µM)
O=c1c2ccccc2nc2n1-c1ccccc1C21OCCO1 [Example 80] | 6.9 µg/mL (≈ 23.6 µM) | 7.97 µg/mL (≈ 27.3 µM)
CCCCCCCCc1ccc2nc3n(c(=O)c2c1)-c1ccc(Cl)cc1C3=O [Example 44] | 5.86 µg/mL (≈ 14.8 µM) | 6.92 µg/mL (≈ 17.5 µM)
CCCCCCCCc1ccc2c(c1)C(=O)c1nc3cc(N(C)CCO)ccc3c(=O)n1-2 [Example 72] | 7.46 µg/mL (≈ 17.2 µM) | 7.86 µg/mL (≈ 18.1 µM)
NC(=O)N/N=C1/c2ccccc2-n2c1nc1ccccc1c2=O [Example 37] | 3.48 µg/mL (≈ 11.4 µM) | 3.78 µg/mL (≈ 12.4 µM)
CN1CCN(c2cc3c(cc2F)C(=O)c2nc4ccccc4c(=O)n2-3)CC1 [Example 18] | 0.513 µg/mL (≈ 1.41 µM) | 0.813 µg/mL (≈ 2.23 µM)
CC1CN(c2cc3nc4n(c(=O)c3cc2F)-c2ccc(I)cc2C4=O)CCN1 (stereo not drawn) [Example 35] | 0.134 µg/mL (≈ 0.273 µM) | 0.103 µg/mL (≈ 0.211 µM)
O=C1c2cc(Cl)ccc2-n2c1nc1ccc(I)cc1c2=O [Example 42] | 0.0632 µg/mL (≈ 0.155 µM) | 0.0764 µg/mL (≈ 0.187 µM)
Cc1ccc2c(c1)C(=O)c1nc3ccncc3c(=O)n1-2 [Example 82] | 0.124 µg/mL (≈ 0.471 µM) | 0.0628 µg/mL (≈ 0.239 µM)
O=c1c2ccccc2nc2oc3ccccc3n12 [Example 3] | > 50 µg/mL | > 50 µg/mL
